From patent publication US10501421B1, “Substituted benzimidazoles as modulators of Ras signaling” (VANDERBILT UNIVERSITY, priority 2017, dated 2019)
Where a name gives a salt, the structure may show the parent alone. Read-outs that look alike come from different tables or passages of the source.

Key:
Son of Sevenless (SOS) = target: T1, Son of Sevenless (SOS) (Homo sapiens, UniProt Q07889); experiment: Binding to SOS, fluorescence polarization anisotropy (FPA) probe displacement; conditions: displacement of FITC-conjugated probe (Example 285), affinity calculated from IC50
T1 sequence (Q07889 564-1049 limits assumed): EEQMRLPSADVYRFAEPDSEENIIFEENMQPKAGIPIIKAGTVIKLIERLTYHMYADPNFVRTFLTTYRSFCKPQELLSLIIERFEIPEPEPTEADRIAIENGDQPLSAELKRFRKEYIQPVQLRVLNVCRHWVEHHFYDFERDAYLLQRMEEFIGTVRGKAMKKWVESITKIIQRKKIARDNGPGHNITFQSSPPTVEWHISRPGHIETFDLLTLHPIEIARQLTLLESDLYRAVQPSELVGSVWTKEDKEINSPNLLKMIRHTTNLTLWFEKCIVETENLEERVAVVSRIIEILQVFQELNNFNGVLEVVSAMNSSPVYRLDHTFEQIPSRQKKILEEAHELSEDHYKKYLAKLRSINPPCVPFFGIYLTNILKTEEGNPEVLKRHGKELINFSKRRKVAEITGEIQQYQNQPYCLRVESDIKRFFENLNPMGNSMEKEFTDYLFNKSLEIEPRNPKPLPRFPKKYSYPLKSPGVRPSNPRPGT
In short: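 A FITC-conjugated probe compound was incubated with SOS in buffer, and its displacement was tracked as a change in fluorescence anisotropy across a test-compound dose range. IC50 came from a four-parameter variable-slope fit, and binding affinity was calculated from it.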

[1] = target: Ras GEF SOS (Son of Sevenless) (Homo sapiens, UniProt Q07889); experiment: SOS-mediated nucleotide exchange on Ras (BODIPY-GDP fluorescence); assay type: biochemical; conditions: SOS-mediated exchange of BODIPY-GDP for GTP on Ras
Ras GEF SOS (Son of Sevenless), sequence (P01112 1-166 partner limits assumed, one chain of several): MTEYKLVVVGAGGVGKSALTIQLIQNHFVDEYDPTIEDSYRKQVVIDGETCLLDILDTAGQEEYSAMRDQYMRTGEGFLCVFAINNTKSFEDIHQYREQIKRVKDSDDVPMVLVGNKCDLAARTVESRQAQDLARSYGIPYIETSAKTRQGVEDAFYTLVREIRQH
In short: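 Ras loaded with BODIPY-GDP was mixed in buffer with test compound, then GTP and SOS. Fluorescence change from labeled GDP/GTP exchange was followed over time, and rates came from single-exponential fits. EC50 came from a four-parameter fit of mean rate against compound concentration.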

[2] = tested on: H727 lung cancer cell lines (G12V K-Ras mutation); experiment: Inhibition of cancer cell proliferation (CellTiter-Glo); assay type: cell-based; conditions: Homo sapiens, NCI-H727, 72 h, read-out: Cell proliferation activity (H727 cancer cell line proliferation IC50)
Protocol: Compounds of the present invention were measured for their ability to kill H727 lung cancer cell lines, which contain a G12V K-Ras mutation. Cell proliferation experiments were conducted in 96-well plates. Cells were plated at 1000 cells/well, incubated overnight, followed by treatment with a dose range of compound for 3 days at 37° C. Cell proliferation was assessed using a CellTiter-Glo assay (Promega) according to the manufacturer's protocol. Data were normalized to DMSO control. IC50 values were determined using a four-parameter dose-response (variable slope) equation. These assays are performed in a manner analogous to the assay disclosed in: Burns, M. C.; Sun, Q.; Daniels, R. N.; Camper, D. V.; Kennedy, J. P.; Phan, J.; Olejniczak, E. O.; Lee, T.; Waterson, A. G.; Rossanese, O. W.; Fesik, S. W. “Approach for targeting Ras with small molecules that activate SOS-mediated nucleotide exchange” Proc. Natl. Acad. Sci. 2014; 11(9): 3401-3406. PMCID: PMC3948241.

[3] = H727 cells, 3 days treatment, CellTiter-Glo

Row | IC50 [2, 3] | Compound | Ki (Son of Sevenless (SOS)) | EC50 [1] | IC50 [2]
1 | – | Cc1cc(-c2ccccc2C)c2nc(N3CCNCC3)n(Cc3ccc(F)c(Cl)c3)c2c1 [Example 120, 1-(3-chloro-4-fluorobenzyl)-6-methyl-2-(piperazin-1-yl)-4-(o-tolyl)-1H-benzo[d]imidazole trifluoroacetate] | < 500 nM | 1000 to 5000 nM | 1000 to 5000 nM
2 | – | Cc1cc(CN2CCCC2)c2nc(N3CCNCC3)n(Cc3cc(C)c(F)c(C)c3)c2c1 [Example 124, 1-(4-fluoro-3,5-dimethylbenzyl)-6-methyl-2-(piperazin-1-yl)-4-(pyrrolidin-1-ylmethyl)-1H-benzo[d]imidazole trifluoroacetate] | 1000 to 5000 nM | < 1000 nM | 1000 to 5000 nM
3 | – | Cc1cc(CN2CCCCC2)c2nc(N3CCNCC3)n(Cc3cc(C)c(F)c(C)c3)c2c1 [Example 125, 1-(4-fluoro-3,5-dimethylbenzyl)-6-methyl-2-(piperazin-1-yl)-4-(piperidin-1-ylmethyl)-1H-benzo[d]imidazole trifluoroacetate] | 1000 to 5000 nM | 1000 to 5000 nM | 1000 to 5000 nM
4 | – | Cc1cc(CN2CCC(O)CC2)c2nc(N3CCNCC3)n(Cc3cc(C)c(F)c(C)c3)c2c1 [Example 126, 1-((1-(4-fluoro-3,5-dimethylbenzyl)-6-methyl-2-(piperazin-1-yl)-1H-benzo[d]imidazol-4-yl)methyl)piperidin-4-ol trifluoroacetate] | 1000 to 5000 nM | 1000 to 5000 nM | 1000 to 5000 nM
5 | – | Cc1cc(CN2CCOCC2)c2nc(N3CCNCC3)n(Cc3cc(C)c(F)c(C)c3)c2c1 [Example 127, 4-((1-(4-fluoro-3,5-dimethylbenzyl)-6-methyl-2-(piperazin-1-yl)-1H-benzo[d]imidazol-4-yl)methyl)morpholine trifluoroacetate] | 1000 to 5000 nM | 1000 to 5000 nM | 1000 to 5000 nM
6 | – | Cc1cc(CN(C)C)c2nc(N3CCNCC3)n(Cc3cc(C)c(F)c(C)c3)c2c1 [Example 128, 1-(1-(4-fluoro-3,5-dimethylbenzyl)-6-methyl-2-(piperazin-1-yl)-1H-benzo[d]imidazol-4-yl)-N,N-dimethylmethanamine trifluoroacetate] | 500 to 1000 nM | < 1000 nM | 1000 to 5000 nM
7 | – | CNCc1cc(Cl)cc2c1nc(N1CCNCC1)n2Cc1cc(C)c(F)c(C)c1 [Example 129, 1-(6-chloro-1-(4-fluoro-3,5-dimethylbenzyl)-2-(piperazin-1-yl)-1H-benzo[d]imidazol-4-yl)-N-methylmethanamine trifluoroacetate] | < 500 nM | < 1000 nM | 1000 to 5000 nM
8 | – | Cc1cc(Cn2c(N3CCNCC3)nc3c(CN4CCCC4)cc(Cl)cc32)cc(C)c1F [Example 130, 6-chloro-1-(4-fluoro-3,5-dimethylbenzyl)-2-(piperazin-1-yl)-4-(pyrrolidin-1-ylmethyl)-1H-benzo[d]imidazole trifluoroacetate] | < 500 nM | < 1000 nM | 1000 to 5000 nM
9 | – | CCCNCc1c(C)c(C)cc2c1nc(N1CCNCC1)n2Cc1cc(C)c(F)c(C)c1 [Example 132, N-((1-(4-fluoro-3,5-dimethylbenzyl)-5,6-dimethyl-2-(piperazin-1-yl)-1H-benzo[d]imidazol-4-yl)methyl)propan-1-amine trifluoroacetate] | 1000 to 5000 nM | < 1000 nM | 1000 to 5000 nM
10 | – | Cc1cc(C2NCCc3c2[nH]c2ccccc32)c2nc(N3CCNCC3)n(Cc3cc(C)c(F)c(C)c3)c2c1 (stereo not drawn) [Example 139, 1-(1-(4-fluoro-3,5-dimethylbenzyl)-6-methyl-2-(piperazin-1-yl)-1H-benzo[d]imidazol-4-yl)-2,3,4,9-tetrahydro-1H-pyrido[3,4-b]indole trifluoroacetate] | 1000 to 5000 nM | 1000 to 5000 nM | 1000 to 5000 nM
11 | – | C=C[C@H](N)c1cc(Cl)cc2c1nc(NCCN)n2Cc1cc(C)c(F)c(C)c1 [Example 156, (S)—N^1-(4-(1-aminoallyl)-6-chloro-1-(4-fluoro-3,5-dimethylbenzyl)-1H-benzo[d]imidazol-2-yl)ethane-1,2-diamine trifluoroacetate] | < 500 nM | < 1000 nM | 1000 to 5000 nM
12 | – | Cc1cc(Cn2c(N3CCNCC3)nc3c([C@@H](N)c4ccccc4)cc(Cl)cc32)cc(C)c1F [Example 159, (S)-(6-chloro-1-(4-fluoro-3,5-dimethylbenzyl)-2-(piperazin-1-yl)-1H-benzo[d]imidazol-4-yl)(phenyl)methanamine trifluoroacetate] | < 500 nM | < 1000 nM | < 1000 nM
13 | – | CC[C@H](N)c1cc(C)cc2c1nc(N1CCNCC1)n2Cc1cc(C)c(F)c(C)c1 [Example 161, (S)-1-(1-(4-fluoro-3,5-dimethylbenzyl)-6-methyl-2-(piperazin-1-yl)-1H-benzo[d]imidazol-4-yl)propan-1-amine trifluoroacetate] | 500 to 1000 nM | < 1000 nM | 1000 to 5000 nM
14 | – | C=C[C@H](N)c1cc(C)cc2c1nc(N1CCNCC1)n2Cc1cc(C)c(F)c(C)c1 [Example 162, (S)-1-(1-(4-fluoro-3,5-dimethylbenzyl)-6-methyl-2-(piperazin-1-yl)-1H-benzo[d]imidazol-4-yl)prop-2-en-1-amine trifluoroacetate] | 1000 to 5000 nM | 1000 to 5000 nM | 1000 to 5000 nM
15 | – | CCC[C@H](N)c1cc(Cl)cc2c1nc(N1CCNCC1)n2Cc1cc(C)c(F)c(C)c1 [Example 164, (S)-1-(6-chloro-1-(4-fluoro-3,5-dimethylbenzyl)-2-(piperazin-1-yl)-1H-benzo[d]imidazol-4-yl)butan-1-amine trifluoroacetate] | < 500 nM | 1000 to 5000 nM | < 1000 nM
16 | – | Fc1ccc(Cn2c(N3CCNCC3)nc3c(-c4ccnn4-c4ccc(Br)cc4)cc(Cl)cc32)cc1Cl [Example 170, 4-(1-(4-bromophenyl)-1H-pyrazol-5-yl)-6-chloro-1-(3-chloro-4-fluorobenzyl)-2-(piperazin-1-yl)-1H-benzo[d]imidazole trifluoroacetate] | < 500 nM | 1000 to 5000 nM | 5000 to 20000 nM
17 | 5000 to 20000 nM | Cc1cnc2nc(N3CCCC(N)C3)n(Cc3ccc(F)c(C)c3)c2c1 (stereo not drawn) [Example 240, 1-(1-(4-fluoro-3-methylbenzyl)-6-methyl-1H-imidazo[4,5-b]pyridin-2-yl)piperidin-3-amine] | > 5000 nM | 1000 to 5000 nM | –
18 | > 20000 nM | Cc1cnc2nc(N3CCC(N)C3)n(Cc3ccc(F)c(C)c3)c2c1 (stereo not drawn) [Example 241, 1-(1-(4-fluoro-3-methylbenzyl)-6-methyl-1H-imidazo[4,5-b]pyridin-2-yl)pyrrolidin-3-amine] | > 5000 nM | 1000 to 5000 nM | –
19 | 5000 to 20000 nM | Cc1cnc2nc(N3CC(CN)C3)n(Cc3ccc(F)c(C)c3)c2c1 [Example 248, (1-(1-(4-fluoro-3-methylbenzyl)-6-methyl-1H-imidazo[4,5-b]pyridin-2-yl)azetidin-3-yl)methanamine] | 500 to 1000 nM | < 1000 nM | –
20 | < 1000 nM | Cc1cc(Cn2c(N3CC(CN)C3)nc3ccc(OC(C)C(F)(F)F)nc32)ccc1F (stereo not drawn) [Example 259, (1-(3-(4-fluoro-3-methylbenzyl)-5-((1,1,1-trifluorpropan-2-yl)oxy)-3H-imidazo[4,5-b]pyridin-2-yl)azetidin-3-yl)methanamine] | > 5000 nM | 5000 to 30000 nM | –
21 | < 1000 nM | Cc1cc(Cn2c(NCC3CNC3)nc3ccc(OC(C)C(F)(F)F)nc32)ccc1F (stereo not drawn) [Example 260, N-(azetidin-3-ylmethyl)-3-(4-fluoro-3-methylbenzyl)-5-((1,1,1-trifluoropropan-2-yl)oxy)-3H-imidazo[4,5-b]pyridin-2-amine] | > 5000 nM | 5000 to 30000 nM | –
22 | 1000 to 5000 nM | Cc1cc(-c2ccccc2Cl)c2nc(N3CCNCC3)n(Cc3cc(C)c(F)c(C)c3)c2c1 [Example 267, 4-(2-chlorophenyl)-1-[(4-fluoro-3,5-dimethylphenyl)methyl]-6-methyl-2-piperazin-1-ylbenzimidazole] | < 500 nM | < 1000 nM | –
